According to paper PMC3133470, “Activity of Cathelicidin Peptides against Simkania negevensis” (International Journal of Peptides, 2011):
Where no end group is shown, it is not given here.

Assays:
Chlamydophila felis = details: previous study of the authors; cited from earlier work
Method: (§1) With regard to the other chlamydial species tested, only Chlamydophila pneumoniae and Chlamydophila felis were sensitive to 10 μg/mL of SMAP-29 and 80 μg/mL of SMAP-29/Bac7, respectively.

[1] = test system: Simkania negevensis reference strain Z (ATCC VR-1471); test: Inhibition of Simkania negevensis infectivity (reduction of inclusions) after pre-incubation of elementary bodies with peptide; type: cell-based; details: purified EBs incubated with peptide 2 h at room temperature in PBS/SPG pH 7.4; tenfold dilutions 100 to 0.01 μg/mL; LLC-MK2 cells, 72 h at 35°C; inclusions by immunofluorescence; untreated control mean 74 IFU/mL; means of three experiments in triplicate
Method: The cathelicidin peptides—PG-1 from pig, Bac7 (1–35) from cattle, SMAP-29 from sheep, LL-37 from human, BMAP-27, and BMAP-28 from cattle—were chemically synthesized, purified, characterized, and provided as lyophilized peptide, as previously reported. The reference strain Z of S. negevensis (American Type Culture Collection VR-1471) was grown in LLC-MK2 cells in 6-large well plates and elementary bodies (EBs) were purified by use of sucrose gradients, resuspended in sucrose-phosphate-glutamic acid buffer (SPG) pH 7.4 (75 g sucrose, 87 mL 0.2 M Na2HPO4, 13 mL 0.2 M NaH2PO4, 0.72 g L-glutamic acid), and frozen in aliquots at −80°C.
Stock solutions of each peptide at 1 g/liter were prepared in phosphate-buffered saline (PBS), pH 7.4, and stored frozen in 20-μL aliquots at −80°C until used. To determine the lowest peptide concentration required to achieve ≥50% reduction of inclusions with respect to untreated control, the various peptides were diluted tenfold from 200 to 0.02 μg/mL, in a volume of 100 μL with PBS in polypropylene tubes. An equal volume of 5 × 10^5 inclusion-forming units (IFU)/mL of purified S. negevensis EBs in SPG medium was then added, so obtaining a final cathelicidin concentration ranging from 100 to 0.01 μg/mL in a mixture of PBS and SPG at a final pH 7.4. EBs untreated with cathelicidins were used as a control. After incubation at room temperature for 2 h, a 200 μL aliquot was added to 800 μL chlamydial growth medium and inoculated onto LLC-MK2 cells grown in 24-well plates in a 5% CO2 atmosphere. After centrifugation at 800 × g for 1 h at 33°C and incubation at 35°C for 72 h, the cultures were fixed and stained for the presence of inclusions by immunofluorescence using an in-house rabbit polyclonal hyperimmune serum raised against S. negevensis. The number of IFU per coverslip was counted in 40 microscopic fields using a ZEISS UV microscope at a magnification of ×200.
All tests were performed in triplicate and in three independent experiments.

[2] = test system: Chlamydia trachomatis strains; details: previous study of the authors; cited from earlier work
Method: as §1

## Bac7: cathelicidin peptide Bac7 (1–35) from cattle, chemically synthesized (RRIRPRPPRLPRPRPRPLPFPRPGPRPIPRPLPFP; Bactenecin 7; UniProt P19661 131-165, looked up, fragment)
Chlamydophila felis
  concentration to which Chlamydophila felis was sensitive: 80 µg/mL
[1]
  lowest peptide concentration required to achieve ≥50% reduction of inclusions with respect to untreated control: 0.1 µg/mL

## LL-37
[2]
  concentration with inhibitory effect on Chlamydia trachomatis strains: > 80 µg/mL
[1]
  lowest peptide concentration required to achieve ≥50% reduction of inclusions with respect to untreated control: > 100 µg/mL

## PG-1: cathelicidin peptide from pig, chemically synthesized; native protegrin-1 has two intramolecular disulfide bonds (RGGRLCYCRRRFCVCVGR; not fully specified (bridges); ends and bridges not checked; also: native protegrin-1 has two intramolecular disulfides, pairing not given here; UniProt P32194 131-148, looked up)
[1]
  lowest peptide concentration required to achieve ≥50% reduction of inclusions with respect to untreated control: 1 µg/mL
